Test results as given in US11505784B2, “Cell culture medium” (BOEHRINGER INGELHEIM INTERNATIONAL GMBH, priority 2015, dated 2022).
Like-named read-outs stand apart in the source and are kept apart here.

Tests used:
[1] = tested on: CHO2 (CHO-DG44) cells producing Rituximab; test: Fed-batch shake flask comparison of iron carriers in basal medium 6.2a (Example 7); assay type: cell-based, Chinese hamster
Procedure: Basal medium 6.2a is a precursor medium that is almost identical to basal medium 6.2 except for additionally comprising some non-essential cofactors and nucleotides and containing no succinic acid, putrescine at only 4.8 mg/l and a total amino acid concentration of 40 mM instead of 44 mM. Further Glutamine was added at a lower amount resulting in a ratio relative to isoleucine of 37.42.
Feed medium 6.2a is a precursor medium that is almost identical to feed medium 6.2 except for additionally comprising some non-essential cofactors and nucleotides and slightly higher sodium bicarbonate and containing putrescine at only 33.02 mg/l and a total amino acid concentration of 511 mM instead of 508 mM. Further alanine was additionally present in the medium with a ratio relative to isoleucine of 0.15.
Experiments were performed in duplicates (N=2).

[2] = tested on: CHO2 (CHO-DG44) cells producing Rituximab; details: for product titer: feed medium 2 with 0.25 g/l iron citrate
Procedure: Cell concentrations and cell viabilities were determined by the trypan blue exclusion method using a CEDEX (Type 5.00, version 2.2) automated cell analyzer (Roche Innovatis, Bielefeld, Germany). The concentrations of produced recombinant proteins in the medium, such as IgG antibodies were quantified by a Konelab 60i (Thermo Scientific, Dreieich, Germany) analyzer based on photometrical methods or by the use of a HPLC method. The Konelab 60i instrument was also used for the quantification of metabolites such as glucose, lactic acid (lactate), glutamine, glutamate, and ammonium in the cell culture supernatants. Amino acid concentrations were determined by use of a GC 6890N/FID gas chromatograph (Agilent Technologies GmbH & Co.KG, Waldbronn, Germany). Amino acid analysis was performed by the EZ-faast protocol from Phenomenex (Aschaffenburg, Germany). Osmolarity profiles were analyzed by an osmomat auto device (Gonotec GmbH, Berlin, Germany). This method is based on the cryoscopic freezing point of a particular solution, which is proportional to the amount of dissolved particles. Dissolved carbon dioxide pCO2, dissolved oxygen pO2 and pH were determined on a daily basis with a Rapidlab 248/348 instrument (Siemens Healthcare Diagnostics GmbH, Eschborn, Germany).
The experiment was performed in 250 ml shake flasks with a starting volume of 60 ml.
Shake flasks were incubated at 37° C. in an incubator (10% CO2 atmosphere was provided from day 0 to 3 followed by 5% CO2 for one day and 0% CO2 until the end of the cultivation). Feeding solution was added every day at a feed rate of 30 ml/L/d starting on day two. Glucose was fed on demand to maintain the actual glucose concentration between 2-4 g/l over the cultivation period. Total cells, viable cells, viability, product concentration, glucose concentration, lactic acid concentration, ammonium concentration and osmolarity were measured every second day until the end of cultivation to monitor and control the experimental progress. Experiments were performed in duplicates (N=2).

[3] = tested on: CHO2 (CHO-DG44) Rituximab cells; details: 0.1 g/l (so in the source) in RPMI based basal medium 3.1; feed medium 2 with 0.25 g/l iron citrate; 2 L bioreactor
Procedure: Cell concentrations and cell viabilities were determined by the trypan blue exclusion method using a CEDEX (Type 5.00, version 2.2) automated cell analyzer (Roche Innovatis, Bielefeld, Germany). The concentrations of produced recombinant proteins in the medium, such as IgG antibodies were quantified by a Konelab 60i (Thermo Scientific, Dreieich, Germany) analyzer based on photometrical methods or by the use of a HPLC method. The Konelab 60i instrument was also used for the quantification of metabolites such as glucose, lactic acid (lactate), glutamine, glutamate, and ammonium in the cell culture supernatants. Amino acid concentrations were determined by use of a GC 6890N/FID gas chromatograph (Agilent Technologies GmbH & Co.KG, Waldbronn, Germany). Amino acid analysis was performed by the EZ-faast protocol from Phenomenex (Aschaffenburg, Germany). Osmolarity profiles were analyzed by an osmomat auto device (Gonotec GmbH, Berlin, Germany). This method is based on the cryoscopic freezing point of a particular solution, which is proportional to the amount of dissolved particles. Dissolved carbon dioxide pCO2, dissolved oxygen pO2 and pH were determined on a daily basis with a Rapidlab 248/348 instrument (Siemens Healthcare Diagnostics GmbH, Eschborn, Germany). […]

O=P([O-])([O-])[O-].[Fe+3] [iron phosphate]
product titer ([1]; iron carrier 0.3 g/L in basal medium 6.2a, feed medium 6.2a without iron choline citrate): 2.29 g/L

C[N+](C)(C)CCO.O=C([O-])CC(O)(CC(=O)[O-])C(=O)[O-].[Fe+2] [iron choline citrate]
osmolarity of the culture compared to equimolar iron citrate (in words) ([2]; equimolar application, data not shown): lower osmolarity values

iron citrate
product titer ([1]; parallel experiment: 0.1 g/L in basal medium 6.2a, feed medium 6.2a with 0.25 g/l iron citrate): 2.38 g/L
product titer ([2]; 0.1 g/L in basal medium 3.1): 0.184 g/L
product titer ([2]; 0.2 g/L in basal medium 3.1): 0.200 g/L
titer ([2]; 1.0 g/L in basal medium 3.1): 201 mg/L
product titer ([2]; 1.0 g/L in basal medium 3.1): 0.201 g/L
product titer [3]: 0.200 g/L

O=P([O-])([O-])OP(=O)([O-])[O-].O=P([O-])([O-])OP(=O)([O-])[O-].O=P([O-])([O-])OP(=O)([O-])[O-].[Fe+3].[Fe+3].[Fe+3].[Fe+3] [iron pyro phosphate]
product titer ([1]; iron carrier 1.3 g/L in basal medium 6.2a, feed medium 6.2a without iron choline citrate): 2.26 g/L
